The target of test [1] is T1, Cathepsin D (Cat D) (Homo sapiens, UniProt P07339).
T1 construct: Recombinant Cat D was expressed in CHO cells; made in house; host or cells: CHO cells
Nature of the test: In vitro enzymatic Cathepsin D (Cat D) FRET assay. The test is classed as biochemical. As to conditions: read-out: CatD IC50. The essentials: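 FRET read-out: a fluorophore/quencher-labelled peptide substrate is cleaved by 9 nM Cat D (recombinant, CHO-expressed) following a one-hour preincubation with inhibitor dilutions in DMSO. Tris buffer added to neutralize pH ends the reaction before fluorescence measurement.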

For test [2], the system named is Aβ40 in conditioned medium of cells stably expressing Amyloid Precursor Protein (APP). In words: In vitro BACE cell-based assay (HEK cell assay), Aβ40 sandwich ELISA. The settings on record: Homo sapiens, HEK293. The gist of the method: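 Aβ40 in conditioned medium was quantified by time-resolved fluorescence sandwich ELISA (pAb40 capture 3 h at 4 °C, biotin-6E10 detection 2 h at 4 °C) after 24 h compound exposure of APP-expressing cells. Doses spanned 10 points from 100 μM or 10 μM top, 0.1% DMSO; IC50 was derived from percent of control.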
(In general: ELISA stands for enzyme-linked immunosorbent assay.)

Test [3] concerns the target Beta Secretase enzyme (BACE1) (Homo sapiens, UniProt P56817). Nature of the test: In vitro enzymatic BACE FRET assay. The test is classed as biochemical. As to conditions: read-out: BACE1 FRET assay IC50. The gist of the method:
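Readout: dequenched fluorescence (ex 488 nm/[…]) after neutralizing with Tris buffer. Reactions, begun by adding 50 nM quenched peptide substrate spanning the BACE cleavage site, were incubated one hour at pH 4.2 in 0.05 M acetate with 100 uM genapol and 10% final DMSO.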

The text below walks through data of US20140107109A1, “AMINO-DIHYDROTHIAZINE AND AMINO-DIOXIDO DIHYDROTHIAZINE COMPOUNDS AS BETA-SECRETASE ANTAGONISTS AND METHODS OF USE” (Amgen Inc., priority 2012, published 2014).

What is called IC50 is the concentration that gives 50% inhibition.

Where two headings read alike, the source gives them in different places.

T1 sequence (P07339 65-412, species assumed): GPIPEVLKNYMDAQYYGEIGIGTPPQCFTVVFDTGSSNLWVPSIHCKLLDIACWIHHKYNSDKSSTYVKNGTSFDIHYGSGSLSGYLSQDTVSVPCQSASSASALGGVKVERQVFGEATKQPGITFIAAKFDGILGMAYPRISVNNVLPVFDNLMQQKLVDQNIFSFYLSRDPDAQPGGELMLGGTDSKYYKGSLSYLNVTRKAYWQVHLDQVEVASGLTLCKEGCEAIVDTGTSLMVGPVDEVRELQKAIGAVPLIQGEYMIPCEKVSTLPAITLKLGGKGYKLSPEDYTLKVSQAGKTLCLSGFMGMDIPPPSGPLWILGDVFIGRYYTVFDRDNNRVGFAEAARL
Sequence of Beta Secretase enzyme (BACE1) (P56817 46-501): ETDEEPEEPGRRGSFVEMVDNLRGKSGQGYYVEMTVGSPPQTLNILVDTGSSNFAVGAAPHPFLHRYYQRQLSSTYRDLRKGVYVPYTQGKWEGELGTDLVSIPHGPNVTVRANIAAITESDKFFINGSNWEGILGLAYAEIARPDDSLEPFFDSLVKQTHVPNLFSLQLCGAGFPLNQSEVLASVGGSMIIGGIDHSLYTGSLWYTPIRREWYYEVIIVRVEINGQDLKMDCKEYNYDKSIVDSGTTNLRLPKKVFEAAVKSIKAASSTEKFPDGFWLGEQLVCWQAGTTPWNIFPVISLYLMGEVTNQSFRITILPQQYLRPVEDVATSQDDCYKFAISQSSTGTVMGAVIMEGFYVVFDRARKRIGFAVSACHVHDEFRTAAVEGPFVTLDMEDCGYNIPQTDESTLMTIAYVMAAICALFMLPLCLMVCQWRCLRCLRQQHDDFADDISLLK

For `CC1(C)C(N)=N[C@](C)(c2cc(Oc3cc(Br)ccn3)ccc2F)CS1(=O)=O` [Example 285, (5R)-5-(5-((4-bromo-2-pyridinyl)oxy)-2-fluorophenyl)-2,2,5-trimethyl-5,6-dihydro-2H-1,4-thiazin-3-amine 1,1-dioxide], the IC50 in test [1] was found to be 374 µM; in test [2] (average IC50, cell assay), 0.0918 µM; in test [3] (average IC50, enzyme assay) it was 0.0375 µM.

Take `COc1cnc2c(Nc3ccc(F)c([C@@]4(C)N=C(N)C5(CC5)S(=O)(=O)[C@@H]4F)c3)nccc2n1` [Example 209, N-(3-((5S,6R)-8-amino-5-fluoro-6-methyl-4,4-dioxido-4-thia-7-azaspiro[2.5]oct-7-en-6-yl)-4-fluorophenyl)-2-methoxypyrido[3,4-b]pyrazin-5-amine]: the IC50 in test [1] worked out at 157 µM; in test [2] (average IC50, HEK cells), 0.0854 µM; in test [3] (average IC50), 0.0085 µM.

Take `Cc1cc(-c2cnc(Oc3ccc(F)c([C@]4(C)CS(=O)(=O)C(C)(C)C(N)=N4)c3)c(F)c2)on1` [Example 256, (5R)-5-(2-fluoro-5-((3-fluoro-5-(3-methyl-5-isoxazolyl)-2-pyridinyl)oxy)phenyl)-2,2,5-trimethyl-5,6-dihydro-2H-1,4-thiazin-3-amine 1,1-dioxide]: the IC50 in test [1] worked out at 195 µM; in test [2] (average IC50, cell assay) it was 1.82 µM; in test [3] (average IC50, enzyme assay), 0.65 µM.

For the molecule `CC1(C)C(N)=N[C@](C)(c2cc(Oc3ncc(C(F)(F)F)cc3F)ccc2F)CS1(=O)=O` [Example 277, (5R)-5-(2-fluoro-5-((3-fluoro-5-(trifluoromethyl)-2-pyridinyl)oxy)phenyl)-2,2,5-trimethyl-5,6-dihydro-2H-1,4-thiazin-3-amine 1,1-dioxide], the IC50 stood at 331 µM in test [1]; 1.15 µM in test [2] (average IC50, cell assay); 1.21 µM in test [3] (average IC50, enzyme assay).

Regarding `CC1(C)C(N)=N[C@](CF)(c2cc(NC(=O)c3ccc(Cl)cn3)ccc2F)CS1(=O)=O` [Example 193, (S)—N-(3-(5-amino-3-(fluoromethyl)-6,6-dimethyl-1,1-dioxido-3,6-dihydro-2H-1,4-thiazin-3-yl)-4-fluorophenyl)-5-chloropicolinamide], the IC50 in test [1] came to 228 µM; in test [2] (average IC50, HEK cells), 0.0161 µM; in test [3] (average IC50), 0.00076 µM.

In the case of `COCc1cc(Cl)cnc1C(=O)Nc1ccc(F)c([C@]2(CF)CS(=O)(=O)C(C)(C)C(N)=N2)c1` [Example 458, N-(3-((3S)-5-amino-3-(fluoromethyl)-6,6-dimethyl-1,1-dioxido-3,6-dihydro-2H-1,4-thiazin-3-yl)-4-fluorophenyl)-5-chloro-3-(methoxymethyl)-2-pyridinecarboxamide], the IC50 in test [1] is 499 µM; in test [2] (average IC50, HEK cells), 0.0239 µM; in test [3] (average IC50), 0.0009 µM.

As for `COc1ncc(NC(=O)c2ccc(Cl)cn2)cc1[C@]1(C)CS(=O)(=O)C(C)(C)C(N)=N1` [Example 170, (R)—N-(5-(5-amino-3,6,6-trimethyl-1,1-dioxido-3,6-dihydro-2H-1,4-thiazin-3-yl)-6-methoxypyridin-3-yl)-5-chloropicolinamide], the IC50 in test [1] was determined as 305 µM; in test [2] (average IC50, cell assay) it was 0.0289 µM; in test [3] (average IC50, enzyme assay), 0.0225 µM.

Regarding `Cc1cc(C(F)F)cnc1C(=O)Nc1ccc(F)c([C@@]2(C)N=C(N)C3(CCC3)S(=O)(=O)[C@@H]2F)c1` [Example 136, N-(3-((6S,7R)-9-amino-6-fluoro-7-methyl-5,5-dioxido-5-thia-8-azaspiro[3.5]non-8-en-7-yl)-4-fluorophenyl)-5-(difluoromethyl)-3-methylpicolinamide], the figures for the IC50 in test [1], in test [2] and in test [3] were 236 µM, 0.0049 µM and 0.0021 µM, respectively.

Consider `C=Cc1cc(Cl)cnc1C(=O)Nc1ccc(F)c([C@]2(CF)CS(=O)(=O)C(C)(C)C(N)=N2)c1` [Example 381, N-(3-((3S)-5-amino-3-(fluoromethyl)-6,6-dimethyl-1,1-dioxido-3,6-dihydro-2H-1,4-thiazin-3-yl)-4-fluorophenyl)-5-chloro-3-ethenyl-2-pyridinecarboxamide], for which the results for the half-maximal inhibitory concentration (IC50) in test [1], in test [2] and in test [3] were 194 µM, 0.0539 µM and 0.00086 µM, respectively.

On to `COc1cnc2c(Nc3ccc(F)c([C@@]45COC[C@@H]4S(=O)(=O)C(C)(C)C(N)=N5)c3)nccc2n1` [Example 247, N-(3-((4aR,7aR)-3-amino-2,2-dimethyl-1,1-dioxido-7,7a-dihydro-2H-furo[3,4-b][1,4]thiazin-4a(5H)-yl)-4-fluorophenyl)-2-methoxypyrido[3,4-b]pyrazin-5-amine], for which the IC50 stood at 477 µM in test [1]; 2.8 µM in test [2] (average IC50, cell assay); 0.704 µM in test [3] (average IC50, enzyme assay).

As to `CC1(C)C(N)=N[C@](C)(c2cc(Oc3cc(C(F)(F)F)ccn3)ccc2F)CS1(=O)=O` [Example 259, (5R)-5-(2-fluoro-5-((4-(trifluoromethyl)-2-pyridinyl)oxy)phenyl)-2,2,5-trimethyl-5,6-dihydro-2H-1,4-thiazin-3-amine 1,1-dioxide], the IC50 came out at 1050 µM in test [1]; 0.248 µM in test [2] (average IC50, cell assay); 0.153 µM in test [3] (average IC50, enzyme assay).

With `CC1(C)C(N)=N[C@](CF)(c2cc(NC(=O)c3ncc(C(F)(F)F)cc3Cl)ccc2F)CS1(=O)=O` [Example 379, N-(3-((3S)-5-amino-3-(fluoromethyl)-6,6-dimethyl-1,1-dioxido-3,6-dihydro-2H-1,4-thiazin-3-yl)-4-fluorophenyl)-3-chloro-5-(trifluoromethyl)-2-pyridinecarboxamide], the IC50 was 775 µM in test [1], 0.0115 µM in test [2] and 0.00099 µM in test [3].

For `CC1(C)C(N)=N[C@](C)(c2cc(NC(=O)c3ccc(Cl)cn3)cc(F)c2F)CS1(=O)=O` [Example 38, (R)—N-(3-(5-amino-3,6,6-trimethyl-1,1-dioxido-3,6-dihydro-2H-1,4-thiazin-3-yl)-4,5-difluorophenyl)-5-chloropicolinamide], the IC50 came to 72.8 µM in test [1]; 0.0065 µM in test [2] (Aβ40, 24 h incubation); 0.001 µM in test [3].

`CC1(C)C(N)=N[C@](C)(c2cc(C(=O)Nc3ccc(Cl)cc3)ccc2F)CS1(=O)=O` [Example 153, (R)-3-(5-amino-3,6,6-trimethyl-1,1-dioxido-3,6-dihydro-2H-1,4-thiazin-3-yl)-N-(4-chlorophenyl)-4-fluorobenzamide]: the IC50 worked out at 237 µM in test [1]; 3.21 µM in test [2] (average IC50, cell assay); 4.68 µM in test [3] (average IC50, enzyme assay).

Turning to `CC1(C)C(N)=N[C@](CF)(c2cc(Nc3ncc(F)c4cc(OCC(F)F)cnc34)ccc2F)CS1(=O)=O` [Example 437, N-(3-((3S)-5-amino-3-(fluoromethyl)-6,6-dimethyl-1,1-dioxido-3,6-dihydro-2H-1,4-thiazin-3-yl)-4-fluorophenyl)-3-(2,2-difluoroethoxy)-5-fluoro-1,7-naphthyridin-8-amine], the IC50 in test [1] is above 1.65 µM; in test [2] (average IC50, cell assay), 0.0643 µM; in test [3] (average IC50, enzyme assay), 0.00223 µM.

For the molecule `CC1(C)C(N)=N[C@](CF)(c2cc(NC(=O)c3cnc(OCC(F)F)cn3)ccc2F)CS1(=O)=O` [Example 364, N-(3-((3S)-5-amino-3-(fluoromethyl)-6,6-dimethyl-1,1-dioxido-3,6-dihydro-2H-1,4-thiazin-3-yl)-4-fluorophenyl)-5-(2,2-difluoroethoxy)-2-pyrazinecarboxamide], the IC50 in test [1] worked out at 858 µM; in test [2] (average IC50, HEK cell assay) it was 0.0214 µM; in test [3] (average IC50, enzyme assay), 0.0005 µM.

As for `CC1(C)C(N)=N[C@](C)(c2cc(NC(=O)c3ccc(C(F)F)cn3)ccc2F)C(F)S1(=O)=O` (stereo partly drawn) [Example 334, N-(3-((3R)-5-amino-2-fluoro-3,6,6-trimethyl-1,1-dioxido-3,6-dihydro-2H-1,4-thiazin-3-yl)-4-fluorophenyl)-5-(difluoromethyl)-2-pyridinecarboxamide], the IC50 in test [1] was 307 µM; in test [2] (average IC50, HEK cell assay) it was 0.0055 µM; in test [3] (average IC50, enzyme assay), 0.0024 µM.

For `C[C@@]1(c2cc(Nc3nccc4cc(Cl)cnc34)cnc2F)CS(=O)(=O)C2(CCC2)C(N)=N1` [Example 230, N-(5-((7R)-9-amino-7-methyl-5,5-dioxido-5-thia-8-azaspiro[3.5]non-8-en-7-yl)-6-fluoro-3-pyridinyl)-3-chloro-1,7-naphthyridin-8-amine], the IC50 in test [1] is 23.2 µM; in test [2] (average IC50, cell assay), 0.0188 µM; in test [3] (average IC50, enzyme assay), 0.00376 µM.

Take `C[C@]1(c2cc(NC(=O)c3ccc(Cl)cn3)ccc2F)N=C(N)C2(CC2)S(=O)(=O)[C@H]1F` [Example 201, N-(3-((5R,6R)-8-amino-5-fluoro-6-methyl-4,4-dioxido-4-thia-7-azaspiro[2.5]oct-7-en-6-yl)-4-fluorophenyl)-5-chloro-2-pyridinecarboxamide]: the 50% inhibitory concentration (IC50) stood at 31.1 µM in test [1]; 0.002 µM in test [2] (average IC50, HEK cells); 0.00062 µM in test [3] (average IC50).

For the molecule `COc1cnc2c(Nc3cnc(F)c([C@]4(C)CS(=O)(=O)C(C)(C)C(N)=N4)c3)nccc2n1` [Example 222, N-(5-((3R)-5-amino-3,6,6-trimethyl-1,1-dioxido-3,6-dihydro-2H-1,4-thiazin-3-yl)-6-fluoro-3-pyridinyl)-2-methoxypyrido[3,4-b]pyrazin-5-amine], the IC50 is 280 µM in test [1]; 0.0036 µM in test [2] (average IC50, cell assay); 0.00259 µM in test [3] (average IC50, enzyme assay).
